Data taken from US10414778B2, “Methods for treatment of resistant cancer” (New Mexico Tech University Research Park Corporation, priority 2016, dated 2019).
Where two headings read alike, the source gives them in different places. Blank lines part the entries; values can stand above or below the compound they belong to.

Legend:
[1] = system: GBM 090909 cells; assay: MTT growth inhibition, primary GBM-derived neurosphere culture GBM 090909; type: cell-based; conditions: Homo sapiens, Table 3, 48-96 h treatment, read-out: GI50 in vitro values, glioma GBM 090909
Method: (§1) Cell culture media were supplemented with 4 mM glutamine (Lonza code BE17-605E), 100 μg/mL gentamicin (Lonza code 17-5182), and penicillin-streptomycin (200 units/ml and 200 μg/ml) (Lonza code 17-602E). Primary GBM-derived neurosphere cultures from a patient undergoing surgical debulking were established using previously described methods. Briefly, resected tumor tissue was minced with a sterile scalpel and dissociated in 3 mL of neurobasal (NB) media containing 100 U/mL of collagenase (Life Technologies™) for 30 minutes at 37° C. Dissociated tissue was then vortexed and filtered using a sterile 70 um nylon Falcon™ cell strainer (Corning™). […]
(§2) Compound 4l was evaluated for in vitro growth inhibition against a panel of cancer cell lines, including U373, U251, U87, T98G, human GBM, and A549 NSCLC. […] Compound 4l was also evaluated for in vitro growth inhibition against the apoptosis-sensitive tumor model Hs683 anaplastic oligodendroglioma as a reference.

[2] = system: GBM 031810 cells; assay: MTT growth inhibition, primary GBM-derived neurosphere culture GBM 031810; type: cell-based; conditions: Homo sapiens, Table 3, 48-96 h treatment, read-out: GI50 in vitro values, glioma GBM 031810
Method: as §1, §2

[3] = system: Hs683 cells; assay: MTT growth inhibition, Hs683 glioma; type: cell-based, human
Method: (§3) Human cancer cell lines were obtained from the American Type Culture Collection (ATCC, Manassas, Va., USA), the European Collection of Cell Culture (ECACC, Salisbury, UK), and the Deutsche Sammlung von Mikroorganismen und Zellkulturen (DSMZ, Braunschweig, Germany). Human cervical adenocarcinoma HeLa cells were cultured in DMEM supplemented with 10% fetal bovine serum (FBS). Human mammary carcinoma MCF-7 cells were cultured in RPMI supplemented with 10% FBS. The U87 cells (ATCC HTB-14) were cultured in DMEM culture medium, while the A549 cells (DSMZ ACC107) were cultured in RPMI culture medium supplemented with 10% heat-inactivated FBS. The GBM Hs683 (ATCC HTB-138) and the T98G (ATCC CRL-1690) cell lines were cultivated in DMEM supplemented with 10% FBS. The GBM U251 cells (ECACC code 09063001) were cultured in 10% MEM. The human uterine sarcoma MES-SA and MES-SA/Dx5 cells were cultured in RPMI-1640 medium supplemented with 10% FBS with MES SA/Dx5 maintained in the presence of 500 nM Doxorubicin (Sigma™). The U373 glioblastoma cells (ECACC 08061901) were cultured in RPMI culture medium supplemented with 10% heat-inactivated FBS.
(§4) All compounds were dissolved in DMSO at a concentration of either 100 mM or 50 mM prior to cell treatment. The cells were trypsinized and seeded at various cell concentrations depending on the cell type. The cells were grown for 24 h to 72 h, treated with compounds at concentrations ranging from 0.001 to 100 μM, and incubated for 48, 72, or 96 h in 100 or 200 μL media depending on the cell line used. Cells treated with 0.1% DMSO were used as a negative control, and cells treated with 1 μM phenyl arsine oxide (PAO) were used as a positive control.
as §2
(§5) Due to their high potencies, compounds 5l and 5g were used to determine the effects of the compounds on drug-resistant tumor cells. Drug-resistant cell lines (i.e., glioma: Hs683, U373, U251, U87, T98G; lung cancer: A549, H2073; uterine carcinoma: MES-SA/Dx5) were complemented with drug-sensitive cell lines, H1993 lung cancer and MES-SA uterine cancer, which were used as controls. Bulbispermine and paclitaxel were also used as controls. The GI50 values were calculated after 48-96 hours of treatment with the indicated compounds in replicate using the MTT growth assay.

[4] = system: U373 glioblastoma cells; assay: MTT growth inhibition, U373 glioma; type: cell-based, human
Method: as §3, §4, §2, §5

[5] = system: U87 cells; assay: MTT growth inhibition, U87 glioma; type: cell-based, human
Method: as §3, §4, §2, §5

[6] = system: T98G cells; assay: MTT growth inhibition, T98G glioma; type: cell-based, human
Method: as §3, §4, §2, §5

[7] = system: U251 cells; assay: MTT growth inhibition, U251 glioma; type: cell-based, human
Method: as §3, §4, §2, §5

[8] = system: A549 cells; assay: MTT growth inhibition, A549 NSCLC; type: cell-based, human; conditions: 48 hours, up to 100 μM, FIGS. 4-7
Method: as §3, §4
(§6) Drug-resistant cell lines (i.e., glioma: Hs683, U373, U251, U87, T98G; lung cancer: A549, H2073; uterine carcinoma: MES-SA/Dx5) were complemented with drug-sensitive cell lines, H1993 lung cancer and MES-SA uterine cancer, which were used as controls. […] The GI50 values were calculated after 48-96 hours of treatment with the indicated compounds in replicate using the MTT growth assay.
Compounds 5l and 5g were further tested using the A549 lung cancer cell line to determine a dose-response effect on apoptosis-resistant cells. (FIGS. 4-7). […] The MTT assay was performed in four replicates after 48 hours of treatment with the indicated compounds relative to a DMSO control.

[9] = system: MES-SA/Dx5 cells; assay: MTT growth inhibition, MDR uterine sarcoma MES-SA/Dx5; type: cell-based, human; conditions: Homo sapiens, MES-SA/Dx5, MTT
Method: as §3, §4
Compound 4l was also evaluated against the MDR uterine sarcoma cell line (MES-SA/Dx5 to evaluate whether the compounds of the invention were substrates for the MDR cancer efflux systems. The MES-SA/Dx5 cell line was established from the parent uterine sarcoma MES-SA, grown in the presence of increasing concentrations of doxorubicin and is known to be resistant to a number of P-gp substrates.
The selection of doxorubicin-resistant cells (MES-SA/Dx5 cell line) was performed by splitting the cells and allowing the cells to adhere overnight. The next day, the cells were initially exposed to a DOX concentration of 100 nM, which represented the GI50 concentration. The cells were maintained at this DOX concentration until their growth rate reached that of the untreated cells. The DOX concentration was then increased in two-fold increments following the same growth criteria at each concentration to a final DOX concentration of 500 nM. Each new DOX concentration required approximately 2 passages to reach the growth rate of the untreated cells.
as §5

[10] = system: H2073 cells; assay: MTT growth inhibition, H2073 drug-resistant NSCLC; type: cell-based, human; conditions: Homo sapiens, NCI-H2073, MTT
Method: NSCLC cell lines H1993 and H2073 were obtained from the Hamon Center for Therapeutic Oncology Research at UT Southwestern Medical Center and cultured in RPMI-1640 medium (Mediatech, VA, USA) supplemented with 5% heat-inactivated FBS (Mediatech™), 100 units/mL penicillin and 0.1 mg/mL streptomycin (Sigma™). All cell lines were cultured in T25 flasks, maintained, and grown at 37° C., 95% humidity, 5% CO2.
as §4
Spirodienone 4l was evaluated against patient-derived NSCLC cell line H1993 and its drug-resistant variant, H2073. The patient-derived NSCLC cell line […] was obtained from a regrown tumor at a primary site after a patient relapsed several months later.
as §5
Compound 5l was further tested to determine the effect of compounds of the invention on drug-resistant tumor cells. A patient-derived non-small cell lung cancer (NSCLC) line, H1993, and the drug-resistant variant of H1993, H2073, were used for testing. The H1993 cell line was obtained from a lymph node metastasis isolated from the patient prior to chemotherapy. The H2073 cell line was derived from a regrown tumor at the primary site after the patient had relapsed several months after administration of the chemotherapy regimen.

[11] = system: MES-SA cells; assay: MTT growth inhibition, MES-SA uterine sarcoma; type: cell-based; conditions: Homo sapiens; parent MES-SA cells at start of selection of doxorubicin-resistant cells; read-out: GI50 concentration
Method: as §3
as §4, with “control. […]” for “control.”
as §6

SMILES: Cn1nnc2c(C(N)=O)ncn2c1=O [TMZ, temozolomide, reference compound]
- GI50 [1]: 50 µM
- GI50 [2]: > 1000 µM

- GI50 ([3]; Table 3, 48-96 h treatment, read-out: GI50 in vitro values, glioma Hs683): 27 µM
- GI50 ([3]; Table 5, 48-96 hours of treatment, read-out: GI50, Glioma Hs683): 27 µM
- GI50 ([4]; Table 3, 48-96 h treatment, read-out: GI50 in vitro values, glioma U373): 53 µM
- GI50 ([4]; Table 5, 48-96 hours of treatment, read-out: GI50, Glioma U373): 53 µM
- GI50 ([5]; Table 3, 48-96 h treatment, read-out: GI50 in vitro values, glioma U87): 38 µM
- GI50 ([5]; Table 5, 48-96 hours of treatment, read-out: GI50, Glioma U87): 38 µM
- GI50 ([6]; Table 3, 48-96 h treatment, read-out: GI50 in vitro values, glioma T98G): 99 µM
- GI50 ([6]; Table 5, 48-96 hours of treatment, read-out: GI50, Glioma T98G): 99 µM
- GI50 ([7]; Table 3, 48-96 h treatment, read-out: GI50 in vitro values, glioma U251): 41 µM
- GI50 ([7]; Table 5, 48-96 hours of treatment, read-out: GI50, Glioma U251): 41 µM
SMILES: O[C@H]1C=C[C@@]23c4cc5c(cc4CN(C[C@@H]2O)[C@H]3C1)OCO5 [bulbispermine, reference compound]

- GI50 ([9]; Table 3, 48-96 h treatment, read-out: GI50 in vitro values, uterine sarcoma MES-SA/Dx5): 10 µM
- GI50 ([9]; Table 5, 48-96 hours of treatment, read-out: GI50, Sarcoma MES-SA/Dx5): 10 µM
- GI50 ([10]; Table 3, 48-96 h treatment, read-out: GI50 in vitro values, lung cancer H2073): 2.4 µM
- GI50 ([10]; Table 5, 48-96 hours of treatment, read-out: GI50, Lung Cancer H2073): 2.4 µM
SMILES: CC(=O)O[C@H]1C(=O)[C@@]2(C)[C@H]([C@H](OC(=O)c3ccccc3)[C@]3(O)C[C@H](OC(=O)[C@H](O)[C@@H](NC(=O)c4ccccc4)c4ccccc4)C(C)=C1C3(C)C)[C@]1(OC(C)=O)CO[C@@H]1C[C@@H]2O [paclitaxel, reference compound]
- anti-proliferative activity, dose-response (absorbance at 595 nm) [8]: did not display such potent anti-proliferative activity

- GI50 [11]: 0.1 µM
SMILES: COc1cccc2c1C(=O)c1c(O)c3c(c(O)c1C2=O)C[C@@](O)(C(=O)CO)C[C@@H]3O[C@H]1C[C@H](N)[C@H](O)[C@H](C)O1 [DOX, doxorubicin, reference compound]
